Reference: US20090325984A1, “USE OF 1,7-DIMETHYLXANTHINE FOR THE MANUFACTURE OF A NON-ANXIOGENIC PSYCHOANALEPTIC DRUG FOR THE TREATMENT OF A NEUROPSYCHIATRIC DISORDER” (Pierre Fabre Medicament, priority 2006, published 2009)
Entries after “also recorded” stand apart in the source; their conditions may differ.

Legend:
Format in all cases: in vivo
male CD1 albino mice [1] = assay: Hole-board test in the mouse; details: 50 mg/kg; for number of edges explored / number of holes explored: 20 minutes after injection, vs solvent
Protocol: The hole-board test investigates curiosity and is negatively affected by anxiety. This apparatus, placed 60 cm above the floor, consists of a square platform of opaque plastic, 40 cm on each side, with 16 evenly distributed holes of such size that an animal is able to pass its head through. The animals were injected and then isolated for 20 minutes before being placed at the center of the platform. The number of holes and edges explored by each animal was counted. The apparatus was cleaned after each animal's test.

male CD1 albino mice [2] = assay: Black-white box test in the mouse; details: 50 mg/kg; for amount of time spent in the lighted compartment: 20 minutes after injection, vs controls
Protocol: The black-white box test measures the state of anxiety of animals as a function of their aversion to light. The apparatus consists of two compartments of the same size (length=21 cm, width=15 cm, height=25 cm), one painted white and illuminated by a 40 W bulb, the other painted black and closed with a cover. The animal can pass from one compartment to the other via to an opening 5 cm-square in the lower portion of the partition. After the injection, the animals were isolated for 20 minutes and then placed in the black compartment with their head facing the corner opposite the opening. Using a mirror placed above the apparatus, the time before first entering the lit compartment, the number of times entering and the time spent in the lighted compartment were measured. The two compartments were cleaned between each test.

male CD1 albino mice [3] = assay: Locomotor activity (horizontal and vertical) in the mouse
Protocol: The animals were placed in groups of 20 in plexiglass cages (38×24×18 cm) and kept in a ventilated animal facility where the temperature was maintained at 21±1° C. The animals had free access to water and food; artificial lighting established a day/night cycle (daytime between 7:00 a.m. and 7:00 p.m.). Experiments were conducted between 11:00 a.m. and 6:00 p.m. […] The solutions were stabilized with Cremophor EL (Sigma) to a final concentration of 15%. The solutions were injected by intraperitoneal route in a dose of 10 ml/kg. Before each test, the animals were isolated for 20 minutes in plexiglass cages (27×13×13 cm); they had food at their disposal. […] Photoelectric sensors in the chambers measured the horizontal and vertical activity of the animals, expressed as the number of interrupted beams, and the data was analyzed using a software application (Omnitech Electronics Inc., Columbus, Ohio, USA). […] Animals were placed in the activity monitoring system immediately after receiving the injection. The chambers were cleaned after each animal's test.

male CD1 albino mice [4] = assay: Raised cross-shaped labyrinth test in the mouse; details: for anxiogenic effect in the raised cross-shaped labyrinth test / number of times the mice entered the open arm: 50 mg/kg; for number of times the mice entered the open arm: five minutes recording
Excerpt: The raised cross-shaped labyrinth test measures the animals' anxiety level based on its spontaneous aversion to voids (80). The apparatus is composed of four arms, placed at right angles, each measuring 18×6 cm; it rests on a pedestal 60 cm above the floor. Two of the arms have 6 cm-high side walls and are laid out end to end; these are the “closed” arms. […] After receiving their injections, the animals were isolated for twenty minutes and then placed in the labyrinth, at the center of the cross, with their head in the direction of a closed arm. Movements by the animals were recorded for five minutes by a video camera connected to image analysis software (Videotrack). The labyrinth was cleaned after each animal's test.

male Wistar rats = assay: Vogel conflict test in the rat; details: intraperitoneal, 1, 10, 25 and 50 mg/kg
Protocol: Experiments were performed using male Wistar rats weighing 180 g to 280 g according to the procedure described by Vogel et al. (Psychopharmacologia, 1971, 21: 1-7). Animals were deprived of water for 48 hours and then individually placed in a plexiglass chamber (15×32×34 cm) whose floor consisted of conducting metal bars spaced 1 cm apart. In the center of one of the chamber's walls was placed a metal cup connected to an electric shock generator (1.7 mA; 1 s).
During the test, the animal, which is left free to explore the apparatus, receives an electric shock each time it consumes water from the cup. A researcher blind to the treatment received by the animal counts the number of times that the animal consumes water and is punished by the electric shock. An increase in the number of times an animal consumes water indicates an anxiolytic effect, whereas a reduction in this number indicates an anxiogenic effect.
(§1) Paraxanthine was dissolved under heating in sodium benzoate (30 mg/ml) with the addition of Cremophor EL to a final concentration of 15% and administered by intraperitoneal route at doses of 1 mg/kg, 10 mg/kg, 25 mg/kg and 50 mg/kg. Clobazam was used as the reference anxiolytic; it was dispersed in a 0.2% hydroxypropylmethylcellulose solution and administered by intraperitoneal route at a dose of 32 mg/kg.

NMRI mice = assay: Four-plate test in the mouse; details: intraperitoneal, 25 mg/kg (P<0.05)
Protocol: Experiments were performed using NMRI mice weighing 20 g to 30 g according to the method described by Aron et al. (Neuropharmacology, 1971, 10:459-469). Animals were placed in a plastic chamber whose floor consisted of four metal plates independently connected to an electric shock generator (2.5 mA; 1.5 s). The animal is initially left free to explore the apparatus for 15 seconds, after which it receives an electric shock each time it crosses between two metal plates. An increase in the number of crossings indicates anxiolytic activity, whereas a reduction in this number indicates anxiogenic activity.
as §1, with “16” for “32”

Q: Which “anxiogenic effect in the hole-board test” value (male CD1 albino mice [1]) does the source give for Cn1c(=O)c2c(ncn2C)n(C)c1=O [caffeine, 1,3,7-Trimethylxanthine] here?
A: Its value is “has an anxiogenic effect; also recorded: had an anxiogenic effect”.

Q: What about the “number of edges explored” value (male CD1 albino mice [1]) of the same molecule?
A: Its value is “significantly decreased”.

Q: And the “number of holes explored” value (male CD1 albino mice [1])?
A: The value was “significantly decreased”.

Q: And the “anxiolytic effect in the black-white box test” value (male CD1 albino mice [2])?
A: The value was “does not; also recorded: did not have an anxiolytic effect”.

Q: And the “amount of time spent in the lighted compartment” value (male CD1 albino mice [2])?
A: The value was “did not change”.

Q: What about the “duration of stimulation of horizontal locomotor activity” value (male CD1 albino mice [3]; intraperitoneal, 10 mg/kg) of the same molecule?
A: Its value is “at least one hour”.

Q: And the vertical locomotor activity (male CD1 albino mice [3]; intraperitoneal, 10 mg/kg, significant only 30 minutes after the injection (P<0.05))?
A: Its vertical locomotor activity is “stimulated the animals' vertical locomotor activity”.

Q: And the horizontal locomotor activity (male CD1 albino mice [3]; intraperitoneal, 10 mg/kg, within the first 10 minutes (P<0.05))?
A: Its horizontal locomotor activity is “stimulated animals' horizontal locomotor activity”.

Q: And the “duration of stimulation of horizontal locomotor activity” value (male CD1 albino mice [3]; intraperitoneal, 25 mg/kg)?
A: The value was 40 min.

Q: And the horizontal locomotor activity (male CD1 albino mice [3]; intraperitoneal, 25 mg/kg, 10 minutes after the injection (P<0.05))?
A: Its horizontal locomotor activity is “stimulated this activity”.

Q: What about the “duration of decrease of vertical activity” value (male CD1 albino mice [3]; intraperitoneal, 100 mg/kg) of the same molecule?
A: The value was 40 min.

Q: And the vertical locomotor activity (male CD1 albino mice [3]; intraperitoneal, 100 mg/kg, from the first measurement period (P<0.05))?
A: Its vertical locomotor activity is “vertical activity decreased relative to that of the controls”.

Q: And the “horizontal activity for one hour (cumulative)” value (male CD1 albino mice [3]; intraperitoneal, 60 minutes)?
A: The value was “stimulated by caffeine only at doses of 10 mg/kg (P<0.01) and 25 mg/kg (P<0.05)”.

Q: And the horizontal locomotor activity (male CD1 albino mice [3]; intraperitoneal, doses lower than 10 mg/kg or higher than 25 mg/kg, vs solvent alone)?
A: Its horizontal locomotor activity is “no significant difference”.

Q: What about the “range of doses with stimulating effect on locomotor activity” value (male CD1 albino mice [3]; same conditions) of the same molecule?
A: Its value is 10 to 25 mg/kg.

Q: And the “stimulating effect on locomotor activity compared with paraxanthine” value (male CD1 albino mice [3]; same conditions)?
A: The value was “the effect is less”.

Q: What about the “anxiogenic effect in the raised cross-shaped labyrinth test” value (male CD1 albino mice [4]) of the same molecule?
A: The value was “is anxiogenic; also recorded: has an anxiogenic effect”.

Q: And the “number of times the mice entered the open arm” value (male CD1 albino mice [4])?
A: The value was “reduced the number of times the mice entered the open arm”.

Q: With Cn1c(=O)[nH]c2ncn(C)c2c1=O [paraxanthine, 1,7-dimethyl-3,7-dihydro-1H-purine-2,6-dione] as the molecule, how does the “anxiogenic effect in the hole-board test” value (male CD1 albino mice [1]) read?
A: Its value is “not the case; also recorded: did not”.

Q: What about the “number of edges explored” value (male CD1 albino mice [1]) of the same molecule?
A: The value was “did not have any effect”.

Q: What about the “number of holes explored” value (male CD1 albino mice [1]) of the same molecule?
A: Its value is “did not have any effect”.

Q: What about the “anxiogenic effect in the Vogel conflict test” value (male Wistar rats) of the same molecule?
A: Its value is “did not have an anxiogenic effect; also recorded: did not demonstrate an anxiogenic effect”.

Q: And the “number of times animals consumed water” value (male Wistar rats)?
A: The value was “did not decrease”.

Q: What about the “anxiolytic effect in the black-white box test” value (male CD1 albino mice [2]) of the same molecule?
A: The value was “has an anxiolytic effect; also recorded: exhibited an anxiolytic effect”.

Q: What about the “amount of time spent in the lighted compartment” value (male CD1 albino mice [2]) of the same molecule?
A: Its value is “increased the amount of time spent in the lighted compartment”.

Q: And the “number of times entering the lighted compartment” value (male CD1 albino mice [2]; vs animals treated with caffeine (P<0.05))?
A: The value was “went into the lighted compartment more often than animals treated with caffeine”.

Q: And the “stimulating effect on locomotor activity” value (male CD1 albino mice [3]; doses from 1 mg/kg up to 50 mg/kg)?
A: The value was “dose-dependant stimulating effect”.

Q: And the “duration of stimulation of horizontal locomotor activity” value (male CD1 albino mice [3]; intraperitoneal, 1 mg/kg)?
A: Its value is 30 min.

Q: What about the horizontal locomotor activity (male CD1 albino mice [3]; intraperitoneal, 1 mg/kg, from the first 10-minute measurement period, vs solvent (P<0.05 or P<0.01)) of the same molecule?
A: The horizontal locomotor activity was “stimulated horizontal locomotor activity”.

Q: What about the vertical locomotor activity (male CD1 albino mice [3]; intraperitoneal, comparable to horizontal activity, effect of 1 mg/kg more difficult to demonstrate) of the same molecule?
A: The vertical locomotor activity was “stimulated the animals' vertical locomotor activity”.

Q: And the “duration of stimulation of horizontal locomotor activity” value (male CD1 albino mice [3]; intraperitoneal, doses higher than 1 mg/kg)?
A: Its value is “at least one hour”.

Q: What about the horizontal locomotor activity (male CD1 albino mice [3]; intraperitoneal, doses higher than 1 mg/kg (P<0.01 or P<0.001)) of the same molecule?
A: Its horizontal locomotor activity is “the effect was more marked”.

Q: What about the “anxiogenic effect in the raised cross-shaped labyrinth test” value (male CD1 albino mice [4]) of the same molecule?
A: The value was “not the case”.

Q: What about the “anxiolytic effect in the raised cross-shaped labyrinth test” value (male CD1 albino mice [4]; 50 mg/kg (high doses)) of the same molecule?
A: Its value is “has an anxiolytic effect”.

Q: What about the “number of times the mice entered the open arm” value (male CD1 albino mice [4]) of the same molecule?
A: The value was “had no effect”.

Q: What about the “time spent by the animals in the open arm” value (male CD1 albino mice [4]; increasing doses from 1 mg/kg to 50 mg/kg (P<0.05 at 50 mg/kg)) of the same molecule?
A: The value was “increased until a significant effect was exhibited at a dose of 50 mg/kg”.

Q: What about the “anxiolytic activity (number of crossings between two plates)” value (NMRI mice) of the same molecule?
A: Its value is “has anxiolytic activity; also recorded: exhibited anxiolytic activity”.
